Measurements as given in ChEMBL document CHEMBL5360649, “Potential Broad-Spectrum Antimicrobial, Wound Healing, and Disinfectant Cationic Peptide Crafted from Snake Venom” (J Med Chem, 2023).
Activity calls are given as the source filed them. No cut-off for these calls is given here.

What was measured:
Cell membrane [1] = assay: Induction of outer membrane permeabilization in methicillin-resistant Staphylococcus aureus at 0.5 to 1 times of MIC incubated for 5 to 20 mins by fluorescence based NPN uptake assay; type: subcellular; details: time 5-20 min
Staphylococcus aureus [2] = assay: Antibiofilm activity against methicillin-resistant Staphylococcus aureus assessed as increase in dead cell proportion at 0.5 times of MIC incubated overnight by SYTO9/PI staining based fluorescence analysis; type: functional, organism-based
Escherichia coli [3] = assay: Induction of morphological changes in Escherichia coli assessed as membrane perturbation at MIC concentration incubated for 60 mins by SEM analysis; type: functional, organism-based
Klebsiella pneumoniae [4] = assay: Antibiofilm activity against Klebsiella pneumoniae assessed as biofilm eradication at 0.5 times of MIC incubated for 24 hrs by CV staining based analysis relative to control; type: functional
Pseudomonas aeruginosa [5] = assay: Induction of morphological changes in Pseudomonas aeruginosa at MIC concentration incubated for 6 hrs by AFM analysis; type: functional, organism-based
Cell membrane [6] = assay: Induction of inner membrane permeabilization in Klebsiella pneumoniae assessed as increase in fluorescence at 0.5 to 1 times of MIC incubated for 60 mins by PI staining based fluorescence analysis; type: subcellular
Klebsiella pneumoniae [7] = assay: Antibacterial activity against Klebsiella pneumoniae assessed as cell division block by measuring bacterial filamentation at 0.5 to 1 times of MIC incubated for 30 mins by SYTO9/PI staining based fluorescence microscopic analysis; type: functional, organism-based
Rattus norvegicus [8] = organism: Rattus norvegicus; assay: Induction of wound healing in surgically-induced Albino Wistar rat wound model inoculated with methicillin-resistant Staphylococcus aureus assessed as hair follicle formation at 10 uM measured after 11 days by H&E staining based analysis; type: functional; details: time 11.0 day
Klebsiella pneumoniae [9] = assay: Antibacterial activity against Klebsiella pneumoniae ATCC BAA-1705 assessed as inhibition of bacterial growth incubated for 24 hrs by CLSI protocol based microdilution method; type: functional
Pseudomonas aeruginosa [10] = assay: Antibiofilm activity against Pseudomonas aeruginosa in the presence of Na+; type: functional, organism-based
Staphylococcus aureus [11] = assay: Antibiofilm activity against methicillin-resistant Staphylococcus aureus in the presence of Cl-; type: functional, organism-based
[12] = Stability in human serum assessed as half-life at 1 mM by HPLC analysis; type: ADME, cell-free
Klebsiella pneumoniae [13] = assay: Induction of resistance development in Klebsiella pneumoniae assessed as fold increase in MIC at 0.5 times of MIC incubated with compound for 12 hrs followed by replacement with fresh medium for 12 hrs and measured after 20 repeated cycles; type: functional; details: time 240 hrs
Rattus norvegicus [14] = organism: Rattus norvegicus; assay: Induction of wound healing in surgically-induced Albino Wistar rat wound model assessed as proper formation of hair follicles at 10 uM measured after 11 days by H&E staining based analysis; type: functional; details: time 11.0 day
Cell membrane [15] = assay: Induction of inner membrane permeabilization in methicillin-resistant Staphylococcus aureus assessed as increase in fluorescence at 0.5 to 1 times of MIC incubated for 60 mins by PI staining based fluorescence analysis; type: subcellular
Escherichia coli [16] = assay: Induction of resistance development in Escherichia coli assessed as change in MIC at 0.5 times of MIC incubated with compound for 12 hrs followed by replacement with fresh medium for 12 hrs and measured after 20 repeated cycles; type: functional, organism-based; details: time 240.0 hrs
Cell membrane [17] = assay: Induction of outer membrane permeabilization in Klebsiella pneumoniae at 0.5 to 1 times of MIC incubated for 5 to 20 mins by fluorescence based NPN uptake assay; type: subcellular; details: time 5-20 min
[18] = Cytotoxicity against human A549 cells assessed as cell viability at 25 uM incubated for 24 hrs by MTT assay relative to control; type: toxicity, cell-based; details: read-out: Activity
Escherichia coli [19] = assay: Antibacterial activity against Escherichia coli assessed as inhibition of bacterial growth incubated for 0.5 to 8.5 hrs by microtiter plate reader analysis; type: functional, organism-based; details: dose 1.25-40 µM, time 0.5-8.5 hrs
[20] = Cytotoxicity against human MCF7 cells assessed as cell viability at 25 uM incubated for 24 hrs by MTT assay relative to control; type: toxicity, cell-based; details: read-out: Activity
Staphylococcus aureus [21] = assay: Induction of morphological changes in methicillin-resistant Staphylococcus aureus at MIC concentration incubated for 6 hrs by AFM analysis; type: functional, organism-based
Klebsiella pneumoniae [22] = assay: Antibacterial activity against carbapenem resistant Klebsiella pneumoniae ATCC BAA-1705 assessed as inhibition of bacterial growth incubated for 8 hrs at 1.25 to 40 uM by microtiter plate reader analysis; type: functional, organism-based; details: dose 1.25-40 µM
Rattus norvegicus [23] = organism: Rattus norvegicus; assay: Induction of wound healing in surgically-induced Albino Wistar rat wound model assessed as reduction in inflammatory signs at 10 uM measured after 11 days by H&E staining based analysis; type: functional; details: time 11.0 day
Klebsiella pneumoniae [24] = assay: Antibacterial activity against carbapenem resistance Klebsiella pneumoniae ATCC BAA-1705 assessed as inhibition of bacterial growth at 1.25 to 40 uM by microtiter plate reader analysis; type: functional, organism-based; details: dose 1.25-40 µM, time 0.5-8.5 hrs, TDE = time-dependent effect
[25] = Cytotoxicity against mouse RAW264.7 cells assessed as cell viability at 12.5 uM incubated for 24 hrs by MTT assay relative to control; type: toxicity, cell-based; details: read-out: Activity
Staphylococcus aureus [26] = assay: Antibiofilm activity against methicillin-resistant Staphylococcus aureus assessed as increase in dead cell proportion at MIC incubated overnight by SYTO9/PI staining based fluorescence analysis; type: functional, organism-based
Escherichia coli [27] = assay: Induction of morphological changes in Escherichia coli assessed as decrease in legible cells at MIC concentration incubated for 6 hrs by AFM analysis; type: functional, organism-based
Pseudomonas aeruginosa [28] = assay: Antibiofilm activity against Pseudomonas aeruginosa assessed as biofilm eradication at 1 times of MIC incubated for 24 hrs by CV staining based analysis relative to control; type: functional
Klebsiella pneumoniae [29] = assay: Induction of morphological changes in carbapenem resistant Klebsiella pneumoniae ATCC BAA-1705 assessed as cellular destruction at MIC concentration incubated for 6 hrs by AFM analysis; type: functional, organism-based
Escherichia coli [30] = assay: Antibacterial activity against Escherichia coli ATCC CRM-11229 assessed as inhibition of bacterial growth at 25 to 100 uM incubated overnight by spotting assay; type: functional, organism-based; details: dose 25-100 µM
U-937 = assay: Immunomodulatory activity in human U-937 cells assessed as reduction in LPS-induced IL-6 expression level incubated for 24 hrs by radioimmunoprecipitation based dot-plot analysis; type: functional, cell-based; details: dose 5-10 µM
Staphylococcus aureus [31] = assay: Antibiofilm activity against preformed biofilm in methicillin-resistant Staphylococcus aureus assessed as decrease in cell viability at 0.5 times of MIC incubated overnight by MTT assay relative to control; type: functional
Klebsiella pneumoniae [32] = assay: Induction of morphological changes in carbapenem resistant Klebsiella pneumoniae ATCC BAA-1705 assessed as membrane damage at MIC concentration incubated for 60 mins by SEM analysis; type: functional, organism-based
Klebsiella pneumoniae [33] = assay: Antibiofilm activity against Klebsiella pneumoniae assessed as eradication of preformed biofilm at 0.5 times of MIC incubated for 24 hrs by CV staining based analysis relative to control; type: functional
Cell membrane [34] = assay: Induction of inner membrane permeabilization in Pseudomonas aeruginosa assessed as increase in fluorescence at 0.5 to 1 times of MIC incubated for 60 mins by PI staining based fluorescence analysis; type: subcellular
Klebsiella pneumoniae [35] = assay: Antibacterial activity against Klebsiella pneumoniae assessed as cell division block by measuring cellular elongation at 0.5 to 1 times of MIC incubated for 30 mins by SYTO9/PI staining based fluorescence microscopic analysis; type: functional, organism-based
[36] = Hemolytic activity in human RBC assessed as hemolysis at 25 uM incubated for 30 mins under shaking condition by multiplate reader analysis relative to control; type: toxicity, cell-based, Erythrocyte; details: human red blood cells (RBC), read-out: Activity

With H-FLPIIKWVKKFFWRWR-OH as the substance, how does the Activity (Cell membrane [1]) read?
Its Activity is “Active”.

And the Activity (Staphylococcus aureus [2])?
The Activity was “inactive”.

And the Activity (Escherichia coli [3])?
Its Activity is “Active”.

What about the Activity (Klebsiella pneumoniae [4]) of the same substance?
The Activity was roughly 62%.

What about the Activity (Pseudomonas aeruginosa [5]) of the same substance?
The Activity was “Active”.

And the Activity (Cell membrane [6])?
Its Activity is “Active”.

And the Activity (Klebsiella pneumoniae [7])?
The Activity was “Active”.

What about the Activity (Rattus norvegicus [8]) of the same substance?
The Activity was “Active”.

What about the MIC (Klebsiella pneumoniae [9]) of the same substance?
The MIC was 8 µM.

What about the Activity (Pseudomonas aeruginosa [10]) of the same substance?
The Activity was “Active”.

What about the Activity (Staphylococcus aureus [11]) of the same substance?
Its Activity is “Active”.

And the half-life at 1000 µM [12]?
The half-life at 1000 µM was roughly 24 h.

What about the “fold change (FC)” value (Klebsiella pneumoniae [13]) of the same substance?
Its value is 2.

What about the Activity (Rattus norvegicus [14]) of the same substance?
The Activity was “Active”.

And the Activity (Cell membrane [15])?
The Activity was “Active”.

And the Activity (Escherichia coli [16])?
Its Activity is “inactive”.

What about the Activity (Cell membrane [17]) of the same substance?
The Activity was “Active”.

And the viability at 24 h, 25 µM [18]?
Its viability at 24 h, 25 µM is 55.4%.

And the Activity (Escherichia coli [19])?
Its Activity is “Dose-Dependent Effect”.

And the viability at 24 h, 25 µM [20]?
Its viability at 24 h, 25 µM is 63.8%.

And the Activity (Staphylococcus aureus [21])?
The Activity was “Active”.

And the Activity (Klebsiella pneumoniae [22])?
The Activity was “Active”.

What about the Activity (Rattus norvegicus [23]) of the same substance?
The Activity was “Active”.

And the Activity (Klebsiella pneumoniae [24])?
Its Activity is “Tde”.

What about the viability at 24 h, 12.5 µM [25] of the same substance?
The viability at 24 h, 12.5 µM was greater than 90%.

And the Activity (Staphylococcus aureus [26])?
Its Activity is “Active”.

And the Activity (Escherichia coli [27])?
The Activity was “Active”.

What about the Activity (Pseudomonas aeruginosa [28]) of the same substance?
Its Activity is “<=72.73%”.

What about the Activity (Klebsiella pneumoniae [29]) of the same substance?
Its Activity is “Active”.

And the Activity (Escherichia coli [30])?
The Activity was “Active”.

And the Activity (U-937)?
Its Activity is “Dose-Dependent Effect”.

What about the Activity (Staphylococcus aureus [31]) of the same substance?
Its Activity is 62.7%.

What about the Activity (Klebsiella pneumoniae [32]) of the same substance?
Its Activity is “Active”.

What about the Activity (Klebsiella pneumoniae [33]) of the same substance?
Its Activity is roughly 56%.

And the Activity (Cell membrane [34])?
The Activity was “Active”.

What about the Activity (Klebsiella pneumoniae [35]) of the same substance?
Its Activity is “Active”.

What about the hemolysis at 0.5 h, 25 µM [36] of the same substance?
The hemolysis at 0.5 h, 25 µM was 20.4%.
